No end group written: not given here.
Key:
[1] = test system: wild-type mouse intestinal tissues; experiment: Intestinal TEER in wild-type mice tissues
PAR-2 = experiment: FZI/0-PAR-2 AP competitive binding in Caco2 cells; parameters: species or system human
Description: FIGS. 4A-4D. FZI/0-PAR-2 AP competitive binding experiments.
FZI/0-PAR-2 AP competitive binding experiments. The activation of PAR-2 requires binding of either its tryptase-generated, cleaved N-terminal portion or the synthetic peptide equivalent, PAR-2 AP, to the receptor's extracellular loop 2 (ECL2) (47). To establish whether FZI/0 binds to the same receptor domain, competitive binding experiments were conducted in Caco2 cells. Cell monolayers were incubated with FITC-FZI/0 (2×10^−8M)) either in the presence of an excess of PAR-2 AP (10^−6M) or a scrambled peptide and then analyzed by fluorescence microscopy.

Caco2 cell monolayers = experiment: PAR-2 AP-induced actin rearrangement in Caco2 cell monolayers; assay type: cell-based, human; details: 10^−6M PAR-2 AP, Caco2, vs BSA
Description: FIGS. 5A to 5D. Actin cytoskeleton arrangement in Caco2 cells exposed to PAR2-AP (FIG. 5A), BSA (FIG. 5B), PAR2-AP+FZI/0 (FIG. 5C), or PAR-2 AP+FZI/1 (FIG. 5D).
Effect of the Zot/zonulin inhibitor FZI/0 on PAR-2 AP-induced actin rearrangement. It has been recently reported that activation of PAR-2 receptor by PAR-2 AP promotes cytoskeletal reorganization (53). To establish whether this effect can be prevented by the synthetic Zot/zonulin peptide inhibitor, FZI/0, immunofluorescence studies were conducted in Caco2 cell monolayers. […] These cytoskeletal changes were blocked by the pre-incubation with 2×10^−6M FZI/0 (FIG. 5C), but not by the scrambled peptide FZI/1 (FIG. 5D). Therefore, PAR-2 AP and FZI/0 appear to bind to the identical structure on enterocytes.

Substance | intestinal resistance (TEER) over time [1] | displacement of FITC-FZI/0 binding (PAR-2; FITC-FZI/0 2×10^−8M, excess of competitor (PAR-2 AP 10^−6M; 100×)) | actin cytoskeleton arrangement (Caco2 cell monolayers) | binding to Caco2 cells (fluorescent particles) (PAR-2; FITC-labelled FZI/0 vs media control)
SLIGRL [PAR-2 AP] | comparable drop in intestinal resistance | significant reduction of FZI/0 immunofluorescent staining particles | dissolution of stress fibers | 
GGVLVQPG [FZI/0] |  |  |  | significant number of fluorescent particles
